According to patent US9511058B2, “Methods for using carboxamide, sulfonamide and amine compounds” (Rigel Pharmaceuticals, Inc., priority 2010, dated 2016):

Biological target: AMPK
Assay: AMPK activation, enzyme-linked immunosorbent assay
Assay type: biochemical
Settings: compounds of Table 4 (Table 9)

| EC50 [nM] | SMILES |
| --- | --- |
| < 500 | N#Cc1ccc(CN2CCC(NC(=O)c3ccc(C(=O)N4CCN(Cc5ccc(C#N)cc5)CC4)cn3)CC2)cc1 [4-1, 5-(4-(4-cyanobenzyl)piperazine-1-carbonyl)-N-(1-(4-cyanobenzyl)piperidin-4-yl)picolinamide] |
| < 500 | N#Cc1ccc(CN2CCC(NC(=O)c3ccc(C(=O)N4CCN(Cc5ccc(F)cc5)CC4)cn3)CC2)cc1 [4-2, N-(1-(4-cyanobenzyl)piperidin-4-yl)-5-(4-(4-fluorobenzyl)piperazine-1-carbonyl)picolinamide] |
| < 500 | N#Cc1ccc(CN2CCC(NC(=O)c3ccc(C(=O)N4CCN(Cc5ccc(C(F)(F)F)cc5)CC4)cn3)CC2)cc1 [4-3, N-(1-(4-cyanobenzyl)piperidin-4-yl)-5-(4-(4-(trifluoromethyl)benzyl)piperazine-1-carbonyl)picolinamide] |
| 1000 to 5000 | O=C(N[C@H]1CCN(Cc2ccc(F)cc2)C1)c1ccc(C(=O)N2CCN(c3ccc(Cl)cc3)CC2)cn1 [4-4, (S)-5-(4-(4-chlorophenyl)piperazine-1-carbonyl)-N-(1-(4-fluorobenzyl)pyrrolidin-3-yl)picolinamide] |
| 1000 to 5000 | O=C(N[C@H]1CCN(Cc2ccncc2)C1)c1ccc(C(=O)N2CCN(c3ccc(Cl)cc3)CC2)cn1 [4-5, (S)-5-(4-(4-chlorophenyl)piperazine-1-carbonyl)-N-(1-(pyridin-4-ylmethyl)pyrrolidin-3-yl)picolinamide] |
| 500 to 1000 | N#Cc1ccc(CN2CC[C@H](NC(=O)c3ccc(C(=O)N4CCN(c5ccc(Cl)cc5)CC4)cn3)C2)cc1 [4-6, (S)-5-(4-(4-chlorophenyl)piperazine-1-carbonyl)-N-(1-(4-cyanobenzyl)pyrrolidin-3-yl)picolinamide] |
| 1000 to 5000 | O=C(N[C@H]1CCN(Cc2ccc(Cl)cc2)C1)c1ccc(C(=O)N2CCN(c3ccc(Cl)cc3)CC2)cn1 [4-7, N-(1-(4-chlorobenzyl)pyrrolidin-3-yl)-5-(4-(4-chlorophenyl)piperazine-1-carbonyl)picolinamide] |
| 1000 to 5000 | O=C(N[C@H]1CCN(Cc2ccc(C(F)(F)F)cc2)C1)c1ccc(C(=O)N2CCN(c3ccc(Cl)cc3)CC2)cn1 [4-8, 5-(4-(4-chlorophenyl)piperazine-1-carbonyl)-N-(1-(4-(trifluoromethyl)benzyl)pyrrolidin-3-yl)picolinamide] |

Same assay, conditions: compounds of Table 5 (Table 10)

| SMILES | EC50 [nM] |
| --- | --- |
| COc1ccc(CN2CCC(Oc3ccc(C(=O)NC4CCN(Cc5ccccc5)CC4)cc3Cl)CC2)cc1 [5-1, N-(1-benzylpiperidin-4-yl)-3-chloro-4-(1-(4-methoxybenzyl)piperidin-4-yloxy)benzamide] | < 1000 |
| COc1cc(C(=O)NC2CCN(Cc3ccccc3)CC2)ccc1OC1CCN(Cc2ccccc2)CC1 [5-2, N-(1-benzylpiperidin-4-yl)-4-(1-benzylpiperidin-4-yloxy)-3-methoxybenzamide] | < 1000 |
| O=C(NC1CCN(Cc2ccccc2)CC1)c1ccc(OC2CCN(Cc3ccco3)CC2)cc1 [5-3, N-(1-benzylpiperidin-4-yl)-4-(1-(furan-2-ylmethyl)piperidin-4-yloxy)benzamide] | 1000 to 10000 |
| Cn1cncc1CN1CCC(Oc2ccc(C(=O)NC3CCN(Cc4ccccc4)CC3)cc2)CC1 [5-4, N-(1-benzylpiperidin-4-yl)-4-(1-((1-methyl-1H-imidazol-5-yl)methyl)piperidin-4-yloxy)benzamide] | > 100000 |
| Cn1cncc1CN1CCC(Oc2ccc(C(=O)NC3CCN(Cc4ccccc4)CC3)cc2Cl)CC1 [5-5, N-(1-benzylpiperidin-4-yl)-3-chloro-4-(1-((1-methyl-1H-imidazol-5-yl)methyl)piperidin-4-yloxy)benzamide] | 50000 to 100000 |
| COc1cc(C(=O)NC2CCN(Cc3ccccc3)CC2)ccc1OC1CCN(CCCc2ccccc2)CC1 [5-7, N-(1-benzylpiperidin-4-yl)-3-methoxy-4-(1-(3-phenylpropyl)piperidin-4-yloxy)benzamide] | < 1000 |
| COc1cc(C(=O)NC2CCN(Cc3ccccc3)CC2)ccc1OC1CCN(c2cccs2)CC1 [5-8, N-(1-benzylpiperidin-4-yl)-3-methoxy-4-(1-(thiophen-2-yl)piperidin-4-yloxy)benzamide] | 1000 to 10000 |
| COc1cc(C(=O)NC2CCN(Cc3ccccc3)CC2)ccc1OC1CCN(S(C)(=O)=O)CC1 [5-9, N-(1-benzylpiperidin-4-yl)-3-methoxy-4-(1-(methylsulfonyl)piperidin-4-yloxy)benzamide] | 20000 to 50000 |
| COc1cc(C(=O)NC2CCN(Cc3ccccc3)CC2)ccc1OC1CCN(c2ccco2)CC1 [5-12, N-(1-benzylpiperidin-4-yl)-3-methoxy-4-(1-(furan-2-yl)piperidin-4-yloxy)benzamide] | 1000 to 10000 |
| O=C(NC1CCN(Cc2ccccc2)CC1)c1cccc(OC2CCN(Cc3ccccc3)CC2)c1 [5-13, N-(1-benzylpiperidin-4-yl)-3-(1-benzylpiperidin-4-yloxy)benzamide] | 20000 to 50000 |
| O=C(NC1CCN(Cc2ccccc2)CC1)c1ccc(OC2CCN(Cc3ccccc3)CC2)c(Cl)c1 [5-14, N-(1-benzylpiperidin-4-yl)-4-(1-benzylpiperidin-4-yloxy)-3-chlorobenzamide] | < 1000 |
| O=C(NC1CCN(Cc2ccccc2)CC1)c1ccc(OC2CCN(Cc3ccc4c(c3)OCCO4)CC2)c(Cl)c1 [5-15, N-(1-benzylpiperidin-4-yl)-3-chloro-4-(1-((2,3-dihydrobenzo[b][1,4]dioxin-6-yl)methyl)piperidin-4-yloxy)benzamide] | < 1000 |
| CC(C)(C)c1ccc(CN2CCC(Oc3ccc(C(=O)NC4CCN(Cc5ccccc5)CC4)cc3Cl)CC2)cc1 [5-16, N-(1-benzylpiperidin-4-yl)-4-(1-(4-tert-butylbenzyl)piperidin-4-yloxy)-3-chlorobenzamide] | < 1000 |
| O=C(NC1CCN(Cc2ccccc2)CC1)c1ccc(OC2CCN(C(=O)c3ccc(F)cc3)CC2)c(Cl)c1 [5-22, N-(1-benzylpiperidin-4-yl)-3-chloro-4-(1-(4-fluorobenzoyl)piperidin-4-yloxy)benzamide] | 1000 to 10000 |

Second part, the molecule after the results:

| EC50 [nM] | SMILES |
| --- | --- |
| < 1000 | O=C(NC1CCN(Cc2ccccc2)CC1)c1ccc(OC2CCN(Cc3ccncc3)CC2)c(Cl)c1 [5-6, N-(1-benzylpiperidin-4-yl)-3-chloro-4-(1-(pyridin-4-ylmethyl)piperidin-4-yloxy)benzamide] |
| 1000 to 10000 | O=C(NC1CCN(Cc2ccccc2)CC1)c1ccc(OC2CCN(c3cccs3)CC2)c(Cl)c1 [5-10, N-(1-benzylpiperidin-4-yl)-3-chloro-4-(1-(thiophen-2-yl)piperidin-4-yloxy)benzamide] |
| 1000 to 10000 | O=C(NC1CCN(Cc2ccccc2)CC1)c1ccc(OC2CCN(c3ccco3)CC2)c(Cl)c1 [5-11, N-(1-benzylpiperidin-4-yl)-3-chloro-4-(1-(furan-2-yl)piperidin-4-yloxy)benzamide] |
| < 1000 | O=C(NC1CCN(Cc2ccccc2)CC1)c1ccc(OC2CCN(c3ccc(C(F)(F)F)cc3)CC2)c(Cl)c1 [5-17, N-(1-benzylpiperidin-4-yl)-3-chloro-4-(1-(4-(trifluoromethyl)phenyl)piperidin-4-yloxy)benzamide] |
| < 1000 | O=C(NC1CCN(Cc2ccccc2)CC1)c1ccc(OC2CCN(C(=O)c3ccc(C(F)(F)F)cc3)CC2)c(Cl)c1 [5-18, N-(1-benzylpiperidin-4-yl)-3-chloro-4-(1-(4-(trifluoromethyl)benzoyl)piperidin-4-yloxy)benzamide] |
| < 1000 | O=C(NC1CCN(Cc2ccccc2)CC1)c1ccc(OC2CCN(Cc3ccc(F)cc3)CC2)c(Cl)c1 [5-19, N-(1-benzylpiperidin-4-yl)-3-chloro-4-(1-(4-fluorobenzyl)piperidin-4-yloxy)benzamide] |
| < 1000 | CC(C)(C)c1ccc(CN2CCC(Oc3ccc(C(=O)NC4CCN(Cc5ccccc5)CC4)cc3F)CC2)cc1 [5-20, N-(1-benzylpiperidin-4-yl)-3-fluoro-4-(1-(4-tert-butylbenzyl)piperidin-4-yloxy)benzamide] |
| 1000 to 10000 | CC(c1ccccc1)N1CCC(Oc2ccc(C(=O)NC3CCN(Cc4ccccc4)CC3)cc2F)CC1 (centres unmarked) [5-21, N-(1-benzylpiperidin-4-yl)-3-fluoro-4-(1-(1-phenylethyl)piperidin-4-yloxy)benzamide] |
| < 1000 | O=C(NC1CCN(Cc2ccccc2)CC1)c1ccc(OC2CCN(c3ccc(C(F)(F)F)cc3)CC2)c(F)c1 [5-23, N-(1-benzylpiperidin-4-yl)-3-fluoro-4-(1-(4-(trifluoromethyl)phenyl)piperidin-4-yloxy)benzamide] |
| 10000 to 20000 | O=C(NC1CCN(Cc2ccccc2)CC1)c1ccc(OC2CCN(Cc3ccccc3C(F)(F)F)CC2)c(Cl)c1 [5-24, N-(1-benzylpiperidin-4-yl)-3-chloro-4-(1-(2-(trifluoromethyl)benzyl)piperidin-4-yloxy)benzamide] |
| > 100000 | O=C(NC1CCN(c2ccccc2)CC1)c1ccc(OC2CCN(c3ccc(C(F)(F)F)cc3)CC2)c(F)c1 [5-25, 3-fluoro-N-(1-phenylpiperidin-4-yl)-4-(1-(4-(trifluoromethyl)phenyl)piperidin-4-yloxy)benzamide] |
| < 1000 | CC(C)(C)OC(=O)N1CCC(NC(=O)c2ccc(OC3CCN(c4ccc(C(F)(F)F)cc4)CC3)c(F)c2)CC1 [5-26, tert-butyl 4-(3-fluoro-4-(1-(4-(trifluoromethyl)phenyl)piperidin-4-yloxy)benzamido)piperidine-1-carboxylate] |
| < 1000 | O=C(NC1CCN(Cc2ccc(F)cc2)CC1)c1ccc(OC2CCN(c3ccc(C(F)(F)F)cc3)CC2)c(F)c1 [5-27, 3-fluoro-N-(1-(4-fluorobenzyl)piperidin-4-yl)-4-(1-(4-(trifluoromethyl)phenyl)piperidin-4-yloxy)benzamide] |
| < 1000 | O=C(NC1CCN(Cc2ccncc2)CC1)c1ccc(OC2CCN(c3ccc(C(F)(F)F)cc3)CC2)c(F)c1 [5-28, 3-fluoro-N-(1-(pyridin-4-ylmethyl)piperidin-4-yl)-4-(1-(4-(trifluoromethyl)phenyl)piperidin-4-yloxy)benzamide] |
| < 1000 | O=C(NC1CCN(Cc2cccnc2)CC1)c1ccc(OC2CCN(c3ccc(C(F)(F)F)cc3)CC2)c(F)c1 [5-29, 3-fluoro-N-(1-(pyridin-3-ylmethyl)piperidin-4-yl)-4-(1-(4-(trifluoromethyl)phenyl)piperidin-4-yloxy)benzamide] |
| < 1000 | CC(C)(C)C(=O)N1CCC(NC(=O)c2ccc(OC3CCN(c4ccc(C(F)(F)F)cc4)CC3)c(F)c2)CC1 [5-30, 3-fluoro-N-(1-pivaloylpiperidin-4-yl)-4-(1-(4-(trifluoromethyl)phenyl)piperidin-4-yloxy)benzamide] |
